Data reported in US8901116B2, “Method for treating pain, anxiety or depression using carbamoyloxy alkanoyl piperazine compound” (SK Biopharmaceuticals Co., Ltd., priority 2007, dated 2014).

Experiments:
Type in all cases: in vivo
male ICR mouse [1] = assay: Head twitch potentiation induced by 5-HTP (5-HTP potentiation test) in mouse; details: po, 0.5 h, p.o, 5-HTP 80 mg/kg + Carbidopa 25 mg/kg i.p. 30 minutes after dosing, head twitches counted for 2 minutes, negative = 5-HT2A antagonist, read-out: 5-HTP Potentiation Increase rate in Head Twitch No.
Procedure: When 5-hydroxy-L-tryptophan (5-HTP) is administered into a mouse, a head twitch phenomenon is observed since serotonin is increasingly secreted in the mouse. […] By using this principle, it is possible to search an effect of the representative antidepressant agent. A test material dissolved in a suitable vehicle was orally administered to a male ICR mouse weighing 20 to 25 g at an amount of 30 mg/kg. After 30 minutes of the oral administration, 5-HTP (80 mg/kg) and 5-HTP peripheral decarbozylase inhibitor ‘Carbidopa’ (25 mg/kg) were intraperitoneally administered to the mouse. After 30 minutes of the intraperitoneal administration, the mouse was put into an observation cage, and head twitches of the mouse were counted for 2 minutes. The anti-depression effect of the test material is represented by the ‘Increase rate in Head Twitch No.’ {[(Head Twitch No. of Test material-administered group−Head Twitch No. of vehicle-administered group)/(Head Twitch No. of vehicle-administered group)]×100%}. […] In addition to the selective serotonin reuptake inhibitor (SSRI) that has been widely used as an antidepressant agent in the clinical fields, it was tested that 5-HT2A antagonists such as nefazodone and trazodone also have an antidepressant effect.

male ICR mouse [2] = assay: Hot plate test in mouse; details: po, p.o, 1 hour after dosing, hot plate 55° C., read-out: Hot Plate Test Increase in latency of avoidance response
Procedure: A hot plate test is one of representative models for measuring an analgesic effect of drugs. A test material dissolved in a suitable vehicle was orally administered to a male ICR mouse weighing 25 to 30 g at an amount of 30 mg/kg. After 1 hour of the oral administration, the mouse was put on a hot plate (55° C.). A latency was recorded from the time right after a mouse is put on a hot plate to the time when avoidance responses (flinching, licking, jumping, etc.) to pain are observed from forefeet or rear legs of the mouse. The analgesic effect of the test material is represented by the ‘Increase in latency of avoidance response’ {[(Latency of avoidance response to pain of Test material-administered group−Latency of avoidance response to pain of vehicle-administered group)/(Latency of avoidance response to pain of Solvent-administered group)]×100%}.

male ICR mouse [3] = assay: Acetic acid-induced writhing test in mouse; details: po, p.o, acetic acid i.p. 1 hour after dosing, writhing counted for 10 minutes, read-out: Writhing Test Suppression of pain response
Procedure: An acetic acid-induced writhing test is one of models for measuring an analgesic effect of drugs. A test material dissolved in a suitable vehicle was orally administered to a male ICR mouse weighing 30 to 35 g at an amount of 10 mg/kg. After 1 hour of the oral administration, […] of an aqueous 0.8% acetic acid solution was intraperitoneally injected into the male ICR mouse to induce the abdominal pain of the male ICR mouse. Right after the administration of acetic acid, the male ICR mouse was put into an empty cage, and the number of writhing behaviors of the mice was counted for 10 minutes. The term “writhing” represents a reflex action in which the mouse overtly extends its abdomen by stretching its hind legs due to the abdominal pain. The analgesic effect of the test material is represented by the ‘suppression of pain response’ {[(Writhing number of vehicle-administered group−Writhing number of Test material—administered group)/(Writhing number of Solvent-administered group)]×100%}.

male ICR mouse [4] = assay: Elevated plus maze (EPM) test in mouse; details: po, p.o, 1 hour after dosing, 5 minutes observation, read-out: Elevated Plus Maze Change index in Open-Arm Time
Excerpt: Elevated plus maze (EPM) is one of representative models that examine an anti-anxiety activity of a test material. Equipment used for an EPM test has a crossroad shape raised in a high position off the ground, and is configured in such a cliff shape that both sides of one road are protected with high walls and the other road is free from the wall. Among them, the road in the cliff shape is referred to as an ‘open arm,’ and the road protected by the walls is referred to as a ‘close arm.’ In this case, a level of the anxiety of a mouse may be measured by determining in which arm the mouse stays longer. In general, the mouse stays longer in the close arm than the open arm, but a mouse treated with a medicine showing an anti-anxiety effect stays relatively longer in the open arm. A test material dissolved in a suitable vehicle was orally administered to a male ICR mouse weighing 20 to 25 g at an amount of 10 mg/kg. After 1 hour of the oral administration, the mouse was put on the center of an EPM equipment to measure how long the mouse stays in the open arm within a time range of 5 minutes. The anti-anxiety effect of the test material is represented by the ‘Change index in Open-Arm Time’ {[(open arm duration in test material-administered group−open arm duration in vehicle-administered group)/(open arm duration in vehicle administered group)]×100%}.

Compound | change in vivo at 30 mg/kg (male ICR mouse [1]) [%] | change in vivo at 30 mg/kg (male ICR mouse [2]) [%] | inhibition in vivo at 10 mg/kg (male ICR mouse [3]) [%] | change in vivo at 10 mg/kg (male ICR mouse [4]) [%]
NC(=O)O[C@H](CC(=O)N1CCN(c2ccc(F)cc2F)CC1)c1ccccc1 [Example 82, (R)-carbamic acid 3-[4-(2,4-difluoro)-phenylpiperazin-1-yl]-3-oxo-1-phenyl-propyl ester] | -20 | 65.7 | 34.5 | 62.6
NC(=O)OC(CC(=O)N1CCN(c2ccccc2)CC1)c1ccc(C(F)(F)F)cc1 (stereo not shown) [Example 31, carbamic acid 3-oxo-3-(4-phenyl-piperazin-1-yl)-1-(4-trifluoromethyl-phenyl)-propyl ester] | 10 | 20.1 | 21.6 | 35.6
NC(=O)O[C@H](CC(=O)N1CCN(c2ccc(F)cc2)CC1)c1ccccc1 [Example 62, (R)-carbamic acid 3-[4-(4-fluoro-phenyl)-piperazin-1-yl]-3-oxo-1-phenyl-propyl ester] | 0.8 | 13.8 | 66.7 | 2.7
NC(=O)OC(CC(=O)N1CCN(c2ccccc2)CC1)c1ccc(Cl)c(Cl)c1 (stereo not shown) [Example 53, carbamic acid 1-(3,4-dichloro-phenyl)-3-oxo-3-(4-phenyl-piperazin-1-yl)-propyl ester] | 50 | 10.6 | 28.5 | -17.7
NC(=O)OC(CC(=O)N1CCN(c2ccccc2)CC1)c1cccc(Cl)c1 (stereo not shown) [Example 51, carbamic acid 1-(3-chloro-phenyl)-3-oxo-3-(4-phenyl-piperazin-1-yl)-propyl ester] | 40.3 | 29.2 | 50.8 | -0.7
NC(=O)OC(CC(=O)N1CCN(c2ccccc2)CC1)c1ccc(Cl)cc1Cl (stereo not shown) [Example 56, carbamic acid 1-(2,4-dichloro-phenyl)-3-oxo-3-(4-phenyl-piperazin-1-yl)-propyl ester] | 40 | 11.8 | 23.3 | 23.9
NC(=O)OC(CC(=O)N1CCN(c2ccc(F)cc2F)CC1)c1ccccc1 (stereo not shown) [Example 13, carbamic acid 3-[4-(2,4-difluoro-phenyl)-piperazin-1-yl]-3-oxo-1-phenyl-propyl ester] | -60 | 21.4 | 64 | 12.6
NC(=O)OC(CC(=O)N1CCN(c2ccccc2)CC1)c1ccc(Cl)cc1 (stereo not shown) [Example 16, carbamic acid 1-(4-chloro-phenyl)-3-oxo-3-(4-phenyl-piperazin-1-yl)-propyl ester] | 140 | 19.5 | 37.3 | 1.3
NC(=O)OC(c1ccccc1)C(F)(F)C(=O)N1CCN(c2ccccc2)CC1 (stereo not shown) [Example 47, carbamic acid 2,2-difluoro-3-oxo-1-phenyl-3-(4-phenyl-piperazin-1-yl)-propyl ester] | 22.5 | 27.2 | 28.8 | 21.4
Cc1ccc(N2CCN(C(=O)CC(OC(N)=O)c3ccccc3)CC2)cc1 (stereo not shown) [Example 4, carbamic acid 3-oxo-1-phenyl-3-(4-p-tolyl-piperazin-1-yl)-propyl ester] | -7.1 | 34.1 | 74.6 | 41.1
NC(=O)O[C@@H](CC(=O)N1CCN(c2ccc(Cl)c(Cl)c2)CC1)c1ccccc1 [Example 66, (S)-carbamic acid 3-[4-(3,4-dichloro-phenyl)-piperazin-1-yl]-3-oxo-1-phenyl-propyl ester] | -39.5 | 27.8 | 62.5 | 50.6
NC(=O)OC(CC(=O)N1CCN(c2ccc(C(F)(F)F)cc2)CC1)c1ccccc1 (stereo not shown) [Example 28, carbamic acid 3-oxo-1-phenyl-3-[4-(4-trifluoromethyl-phenyl)-piperazin-1-yl]-propyl ester] | -12.5 | 3.1 | 55.6 | -1.4
Cc1ccc(N2CCN(C(=O)CC(OC(N)=O)c3ccccc3)CC2)cc1C (stereo not shown) [Example 20, carbamic acid 3-[4-(3,4-dimethyl-phenyl)-piperazin-1-yl]-3-oxo-1-phenyl-propyl ester] | -6.3 | 45.4 | 14.6 | 45.4
NC(=O)OC(CC(=O)N1CCN(c2ccccc2)CC1)c1cccc(C(F)(F)F)c1 (stereo not shown) [Example 45, carbamic acid 1-(3-trifluormethyl-phenyl)-3-oxo-3-(4-phenyl-piperazin-1-yl)-propyl ester] | 167 | 6.9 | 19 | 74.5
NC(=O)O[C@H](CC(=O)N1CCN(c2ccc(Cl)cc2)CC1)c1ccccc1 [Example 61, (R)-carbamic acid 3-[4-(4-chloro-phenyl)-piperazin-1-yl]-3-oxo-1-phenyl-propyl ester] | 27.3 | 38.8 | 24.1 | -27.4
NC(=O)OC(CC(=O)N1CCN(Cc2ccc(Cl)c(Cl)c2)CC1)c1ccccc1 (stereo not shown) [Example 37, carbamic acid 3-[4-(3,4-dichloro-benzyl)-piperazin-1-yl]-3-oxo-1-phenyl-propyl ester] | 167 | 10 | 38.1 | 98.8
NC(=O)O[C@H](CC(=O)N1CCN(c2ccc(O)cc2)CC1)c1ccccc1 [Example 83, (R)-carbamic acid 3-[4-(4-hydroxy)-phenylpiperazin-1-yl]-3-oxo-1-phenyl-propyl ester] | 40.9 | 89.3 | 44.5 | 52.7
Cc1ccc(C(CC(=O)N2CCN(c3ccccc3)CC2)OC(N)=O)cc1 (stereo not shown) [Example 32, carbamic acid 3-oxo-3-(4-phenyl-piperazin-1-yl)-1-p-tolyl-propyl ester] | -40 | 28.2 | 6 | 9.5
NC(=O)O[C@@H](CC(=O)N1CCN(c2ccc(Cl)cc2)CC1)c1ccccc1 [Example 85, (S)-carbamic acid 3-[4-(4-chloro)-phenylpiperazin-1-yl]-3-oxo-1-phenyl-propyl ester] | 222 | 25.3 | 52 | 37
